These results are taken from paper PMC8962522, “Direct interaction of TrkA/CD44v3 is essential for NGF-promoted aggressiveness of breast cancer cells” (Journal of Experimental & Clinical Cancer Research : CR, 2022).

One assay deals with MDA-MB-468 cells. Nature of the assay: Transwell invasion assay through collagen I, MDA-MB-468. The class given is cell-based. To be noted: collagen 1 Transwell, 16 h after treatment; "these effects" = decrease in basal and NGF-induced invasion. The procedure: Transwell invasion assays were performed to assess cancer cell invasion in a Transwell chamber containing a collagen I-coated membrane (12-wells with inserts and […] pore size membranes; Corning, Life Sciences). A total of 1 × 10^6 starved cells (0.1% in SVF medium) were plated in the top chamber and incubated for 10 min before treatment with a peptide (50 ng/mL for 30 min); NGF was added to the lower chamber. […] and stained with Hoechst 33258 (1 mg/mL) for 30 min, and the cells that invaded the lower surface through the pores of the inserts were automatically counted under an inverted microscope with ImageJ software (with an in-house-developed plug-in).
Supplementary file 13046_2022_2314_MOESM3_ESM.pdf: Additional file 3: Supplementary Figure 1. Validation of the ectopic expression of CD44 and/or TrkA in COS-7 cells. The expression of all CD44 isoforms (A), CD44 variant 3 (B), CD44 variant 6 (C) and TrkA ([…]; D) was evaluated by RT–qPCR (normalized using PUM-1). No expression of CD44, CD44 variants [3 or 6] or TrkA was detected in COS-7 cells (A-D) compared with that in cells transfected with the expression plasmid carrying each protein. […] Quantification of the PLA results was performed using ImageJ software (30 randomly chosen fields per condition of three different experiments). […] CD44v3 and CD44v6 levels at the plasma membrane were assessed by flow cytometry (A-D). […]

In assay [1] the test system is TrkA/CD44v6 complex in MDA-MB-231 cells. The assay can be described thus: PLA TrkA/CD44v6 complex formation in MDA-MB-231 cells. To be noted: NGF 100 ng/ml; 30 fields per condition, three experiments. The class given is cell-based. The procedure: Cells (10,000 cells per well) were grown on acid-washed eight-well glass slides (Thermo Scientific) in the appropriate medium supplemented with 10% FBS for 24 h. After NGF treatment, paraformaldehyde (PAF)-fixed cells were incubated with 4% bovine serum albumin (BSA) or 5% FBS (for 1 h at 20 °C), followed by overnight incubation with primary antibodies (rabbit anti-TrkA or rabbit anti-IgG + mouse anti-pan-CD44; mouse anti-CD44v3; mouse anti-CD44v6; mouse anti-IgG2a; mouse anti-IgG2b; or mouse anti-IgG1). PLA was performed following the manufacturer’s instructions in the assay kit (Duolink PLA; Sigma–Aldrich). To obtain the correct representation of the PLA signal for each condition, 30 fields per condition were observed using a fluorescence microscope (Eclipse TiU; Nikon, Japan). The PLA signals (red dots) were automatically quantified using ImageJ software (with an in-house-developed plug-in). […]
Fig. 3 CD44v3 mimetic peptide 4 blocks the TrkA-CD44 association in MDA-MB-231 breast cancer cells. TrkA/CD44v3 (A) and TrkA/CD44v6 (B) complex associations were detected by the proximity ligation assay (PLA) in MDA-MB-231 breast cancer cells. […] Quantification of the PLA results was performed by ImageJ software (30 randomly chosen fields per condition of three different experiments). […]

Turning to “IDDDEDFISST [Peptide 4, mimetic peptide 4 (…) corresponding to the C-terminal region of CD44v3]”, in the assay on MDA-MB-468 cells, the “effect on invasion of MDA-MB-468 cells” value was “These effects on invasion were also observed in the MDA-MB-468 triple-negative breast cancer cell line”. For “NGF: recombinant human β-NGF (Alomone Labs, Israel)”, the “effect on TrkA/CD44v6 complex formation (PLA) in MDA-MB-231 cells” value in assay [1] was “did not induce TrkA/CD44v6 complex formation”.
